ChEMBL document CHEMBL4118098, “Discovery of DS28120313 as a potent orally active hepcidin production inhibitor: Design and optimization of novel 4,6-disubstituted indazole derivatives” (Bioorg Med Chem Lett, 2017)
Each block holds one molecule with its values, some of them ahead of it.

Legend:
[1] = target: Ribosomal protein S6 kinase alpha-4 (Homo sapiens) (UniProt O75676); experiment: Inhibition of MSK2 (unknown origin) at 0.45 uM relative to control
[2] = target: Calcium/calmodulin-dependent protein kinase type 1 (Homo sapiens) (UniProt Q14012); experiment: Inhibition of CaMK1a (unknown origin) at 0.45 uM relative to control
[3] = target: Receptor tyrosine-protein kinase erbB-4 (Homo sapiens) (UniProt Q15303); experiment: Inhibition of HER4 (unknown origin) at 0.45 uM relative to control
[4] = Metabolic stability in pooled CD1 mouse liver microsomes assessed as parent compound remaining at 1 uM after 30 mins by LC-MS/MS analysis; format: ADME, microsome; conditions: read-out: Stability
[5] = target: Serine/threonine-protein kinase Chk2 (Homo sapiens) (UniProt O96017); experiment: Inhibition of CHK2 (unknown origin) at 0.164 uM relative to control
[6] = target: T1, Tyrosine-protein kinase TXK (Homo sapiens) (UniProt P42681); experiment: Inhibition of TXK (unknown origin) at 0.164 uM relative to control
T1 sequence (whole entry): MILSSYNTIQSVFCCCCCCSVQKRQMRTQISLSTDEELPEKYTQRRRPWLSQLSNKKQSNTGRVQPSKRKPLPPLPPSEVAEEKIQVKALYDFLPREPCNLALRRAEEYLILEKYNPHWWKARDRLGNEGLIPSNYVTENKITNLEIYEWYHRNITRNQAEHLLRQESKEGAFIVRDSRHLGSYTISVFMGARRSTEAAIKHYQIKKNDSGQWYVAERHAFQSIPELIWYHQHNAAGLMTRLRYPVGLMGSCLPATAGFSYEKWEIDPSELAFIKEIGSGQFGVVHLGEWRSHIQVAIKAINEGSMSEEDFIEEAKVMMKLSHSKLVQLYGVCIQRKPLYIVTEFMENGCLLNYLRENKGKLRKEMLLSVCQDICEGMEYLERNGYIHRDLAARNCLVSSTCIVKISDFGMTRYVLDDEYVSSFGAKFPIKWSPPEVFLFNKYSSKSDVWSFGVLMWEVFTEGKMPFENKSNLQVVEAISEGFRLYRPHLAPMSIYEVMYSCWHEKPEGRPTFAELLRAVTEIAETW

[7] = target: Misshapen-like kinase 1 (Homo sapiens) (UniProt Q8N4C8); experiment: Inhibition of MINK (unknown origin) at 0.164 uM relative to control
[8] = tested on: Tyrosine-protein kinase ABL1 (Homo sapiens), P00519 [E255K]; experiment: Inhibition of ABL1 E255K mutant (unknown origin) at 0.164 uM relative to control
[9] = target: Phosphorylase b kinase gamma catalytic chain, skeletal muscle/heart isoform (Homo sapiens) (UniProt Q16816); experiment: Inhibition of PhKg1 (unknown origin) at 0.164 uM relative to control
[10] = target: Casein kinase I isoform gamma-1 (Homo sapiens) (UniProt Q9HCP0); experiment: Inhibition of CK1-gamma1 (unknown origin) at 0.164 uM relative to control
[11] = target: Cyclin-dependent kinase 5/CDK5 activator 1 (Homo sapiens) (UniProt Q00535+Q15078); experiment: Inhibition of CDK5/p25 (unknown origin) at 0.164 uM relative to control; format: protein-complex assay
[12] = target: Tyrosine-protein kinase Blk (Homo sapiens) (UniProt P51451); experiment: Inhibition of BLK (unknown origin) at 0.164 uM relative to control
[13] = target: Cyclin-dependent kinase 1/cyclin B1 (Homo sapiens) (UniProt P06493+P14635); experiment: Inhibition of CDK1/CyclinB (unknown origin) at 0.164 uM relative to control; format: protein-complex assay
[14] = target: Cyclin-dependent kinase 9 (Homo sapiens) (UniProt P50750); experiment: Inhibition of CDK9 (unknown origin) at 0.164 uM relative to control
[15] = target: Tyrosine-protein kinase JAK3 (Homo sapiens) (UniProt P52333); experiment: Inhibition of JAK3 (unknown origin) at 0.164 uM relative to control
[16] = target: Protein kinase C alpha type (Homo sapiens) (UniProt P17252); experiment: Inhibition of PKC-alpha (unknown origin) at 0.164 uM relative to control
[17] = target: MAP kinase-activated protein kinase 2 (Homo sapiens) (UniProt P49137); experiment: Inhibition of MAPKAPK2 (unknown origin) at 0.19 uM relative to control
[18] = target: Serine/threonine-protein kinase Nek2 (Homo sapiens) (UniProt P51955); experiment: Inhibition of NEK2 (unknown origin) at 0.19 uM relative to control
[19] = target: Serine/threonine-protein kinase pim-1 (Homo sapiens) (UniProt P11309); experiment: Inhibition of PIM1 (unknown origin) at 0.19 uM relative to control
[20] = tested on: Proto-oncogene tyrosine-protein kinase receptor Ret (Homo sapiens), P07949 [Y791F]; experiment: Inhibition of RET Y791F mutant (unknown origin) at 0.19 uM relative to control
[21] = target: Rho-associated protein kinase 2 (Homo sapiens) (UniProt O75116); experiment: Inhibition of ROCK2 (unknown origin) at 0.19 uM relative to control
[22] = target: Tyrosine-protein kinase SYK (Homo sapiens) (UniProt P43405); experiment: Inhibition of SYK (unknown origin) at 0.19 uM relative to control
[23] = tested on: Tyrosine-protein kinase ABL1 (Homo sapiens), P00519 [E255K]; experiment: Inhibition of ABL1 E255K mutant (unknown origin) at 0.19 uM relative to control
[24] = target: Activated CDC42 kinase 1 (Homo sapiens) (UniProt Q07912); experiment: Inhibition of ACK (unknown origin) at 0.19 uM relative to control
[25] = target: Inhibitor of nuclear factor kappa-B kinase subunit beta (Homo sapiens) (UniProt O14920); experiment: Inhibition of IKK-beta (unknown origin) at 0.19 uM relative to control
[26] = target: T2, Testis-specific serine/threonine-protein kinase 2 (Homo sapiens) (UniProt Q96PF2); experiment: Inhibition of TSSK2 (unknown origin) at 0.19 uM relative to control
T2 sequence (whole entry): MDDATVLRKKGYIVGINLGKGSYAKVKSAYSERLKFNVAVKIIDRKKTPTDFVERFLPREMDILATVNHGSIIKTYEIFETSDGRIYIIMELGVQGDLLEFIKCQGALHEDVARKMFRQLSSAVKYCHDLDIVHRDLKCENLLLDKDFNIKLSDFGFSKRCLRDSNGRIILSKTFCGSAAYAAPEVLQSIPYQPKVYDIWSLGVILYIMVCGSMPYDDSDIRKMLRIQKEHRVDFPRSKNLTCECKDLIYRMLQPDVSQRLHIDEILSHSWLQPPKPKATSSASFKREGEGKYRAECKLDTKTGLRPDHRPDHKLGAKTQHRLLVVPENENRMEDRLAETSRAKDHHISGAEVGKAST

[27] = target: Serine/threonine-protein kinase Nek9 (Homo sapiens) (UniProt Q8TD19); experiment: Inhibition of NEK9 (unknown origin) at 0.19 uM relative to control

inhibition [1]: -3.3%
inhibition [2]: -0.7%
inhibition [3]: -7%
SMILES: Cc1n[nH]c(C)c1-c1ccc2c(NC(=O)c3ccc(N4CCN(C)CC4)cc3)n[nH]c2c1

remaining at 0.5 h, 1 µM [4]: 84%
inhibition [5]: 9.7%
inhibition [6]: 1.3%
inhibition [7]: 7%
inhibition [8]: -2.3%
inhibition [9]: 1%
inhibition [10]: -2.7%
inhibition [11]: 6.3%
inhibition [12]: 6.7%
inhibition [13]: 4%
inhibition [14]: 0%
inhibition [15]: 0%
inhibition [16]: 1.3%
SMILES: COC(=O)Nc1cc(-c2c(C3CC3)n[nH]c2C)cc2[nH]ncc12

inhibition [17]: 1.7%
inhibition [18]: 12%
inhibition [19]: -1.3%
inhibition [20]: 40%
inhibition [21]: -1%
inhibition [22]: 4.7%
inhibition [23]: 64.7%
inhibition [24]: 3%
inhibition [25]: 8%
inhibition [26]: -2%
SMILES: Cc1[nH]nc(C2CC2)c1-c1ccc2c(-c3ccc(N4CCN(C)CC4)nc3)n[nH]c2c1
inhibition [27]: -3%
